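Exposure lasted 48 hours, with cells grown in 96-well plates and compounds tested at five concentrations. Abbreviation: GI50, concentration required for 50% inhibition of growth. TGI denotes the concentration required for complete inhibition of growth.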
What was measured:
Test in all cases: DTP human tumour cell line panel, 48 h
UACC-62 melanoma = tested on: UACC-62 melanoma
SF-268 CNS = tested on: SF-268 CNS
A498 renal = tested on: A498 renal
CCRF-CEM leukemia = tested on: CCRF-CEM leukemia
HS 578T breast = tested on: HS 578T breast
HOP-92 NSCLC = tested on: HOP-92 NSCLC
OVCAR-5 ovarian = tested on: OVCAR-5 ovarian
COLO 205 colon = tested on: COLO 205 colon
K-562 leukemia = tested on: K-562 leukemia
PC-3 prostate = tested on: PC-3 prostate
M14 melanoma = tested on: M14 melanoma
MALME-3M melanoma = tested on: MALME-3M melanoma
T-47D breast = tested on: T-47D breast
SNB-19 CNS = tested on: SNB-19 CNS
OVCAR-8 ovarian = tested on: OVCAR-8 ovarian
U251 CNS = tested on: U251 CNS
MDA-MB-435 = tested on: MDA-MB-435
UO-31 renal = tested on: UO-31 renal
SR leukemia = tested on: SR leukemia
MOLT-4 leukemia = tested on: MOLT-4 leukemia
LOX IMVI melanoma = tested on: LOX IMVI melanoma
HCT-15 colon = tested on: HCT-15 colon
SK-MEL-5 melanoma = tested on: SK-MEL-5 melanoma
RPMI-8226 leukemia = tested on: RPMI-8226 leukemia
HCT-116 colon = tested on: HCT-116 colon
SK-MEL-28 melanoma = tested on: SK-MEL-28 melanoma
HT29 colon = tested on: HT29 colon
MCF7 breast = tested on: MCF7 breast
SF-539 CNS = tested on: SF-539 CNS
SK-MEL-2 melanoma = tested on: SK-MEL-2 melanoma
NCI/ADR-RES ovarian = tested on: NCI/ADR-RES ovarian
NCI-H226 lung = tested on: NCI-H226 lung
MDA-MB-231 breast = tested on: MDA-MB-231 breast
IGROV1 ovarian = tested on: IGROV1 ovarian
NCI-H23 lung = tested on: NCI-H23 lung
NCI-H522 lung = tested on: NCI-H522 lung
BT-549 breast = tested on: BT-549 breast
EKVX NSCLC = tested on: EKVX NSCLC
786-0 renal = tested on: 786-0 renal
KM12 colon = tested on: KM12 colon
HL-60(TB) leukemia = tested on: HL-60(TB) leukemia
ACHN renal = tested on: ACHN renal
SNB-75 CNS = tested on: SNB-75 CNS
SN12C renal = tested on: SN12C renal
A549 NSCLC = tested on: A549 NSCLC
NCI-H460 lung = tested on: NCI-H460 lung
SW-620 colon = tested on: SW-620 colon
OVCAR-4 ovarian = tested on: OVCAR-4 ovarian
RXF 393 renal = tested on: RXF 393 renal
DU-145 prostate = tested on: DU-145 prostate
CAKI-1 renal = tested on: CAKI-1 renal
SK-OV-3 ovarian = tested on: SK-OV-3 ovarian
HCC-2998 colon = tested on: HCC-2998 colon
SF-295 CNS = tested on: SF-295 CNS
UACC-257 melanoma = tested on: UACC-257 melanoma
OVCAR-3 ovarian = tested on: OVCAR-3 ovarian
HOP-62 NSCLC = tested on: HOP-62 NSCLC
TK-10 renal = tested on: TK-10 renal

For `O=C(C[n+]1ccccc1)N/N=C(\Cc1nc2ccc([N+](=O)[O-])cc2[nH]c1=O)C(=O)Nc1cc(Cl)c(Cl)cc1Cl`, the TGI (UACC-62 melanoma) was greater than 100 µM, the TGI (SF-268 CNS) was greater than 100 µM and the TGI (A498 renal) was greater than 100 µM. It also gave a TGI (CCRF-CEM leukemia) greater than 100 µM, a TGI (HS 578T breast) greater than 100 µM and a TGI (HOP-92 NSCLC) greater than 100 µM. It also gave a TGI (OVCAR-5 ovarian) greater than 100 µM, a TGI (COLO 205 colon) greater than 100 µM and a TGI (K-562 leukemia) greater than 100 µM. For the same compound, the TGI (PC-3 prostate) was greater than 100 µM, the TGI (M14 melanoma) was greater than 100 µM and the TGI (MALME-3M melanoma) was greater than 100 µM. The TGI (T-47D breast) was greater than 100 µM, the TGI (SNB-19 CNS) was greater than 100 µM and the TGI (OVCAR-8 ovarian) was greater than 100 µM. For the same compound, the TGI (U251 CNS) was greater than 100 µM, the TGI (MDA-MB-435) was greater than 100 µM and the TGI (UO-31 renal) was greater than 100 µM. The TGI (SR leukemia) was greater than 100 µM, the TGI (MOLT-4 leukemia) was greater than 100 µM and the TGI (LOX IMVI melanoma) was greater than 100 µM. The TGI (HCT-15 colon) was greater than 100 µM, the TGI (SK-MEL-5 melanoma) was greater than 100 µM and the TGI (RPMI-8226 leukemia) was greater than 100 µM. It also gave a TGI (HCT-116 colon) greater than 100 µM, a TGI (SK-MEL-28 melanoma) greater than 100 µM and a TGI (HT29 colon) greater than 100 µM. It also gave a TGI (MCF7 breast) greater than 100 µM, a TGI (SF-539 CNS) greater than 100 µM and a TGI (SK-MEL-2 melanoma) greater than 100 µM. For the same compound, the TGI (NCI/ADR-RES ovarian) was greater than 100 µM, the TGI (NCI-H226 lung) was greater than 100 µM and the TGI (MDA-MB-231 breast) was greater than 100 µM. The TGI (IGROV1 ovarian) was greater than 100 µM, the TGI (NCI-H23 lung) was greater than 100 µM and the TGI (NCI-H522 lung) was greater than 100 µM. It also gave a TGI (BT-549 breast) greater than 100 µM, a TGI (EKVX NSCLC) greater than 100 µM and a TGI (786-0 renal) greater than 100 µM. It also gave a TGI (KM12 colon) greater than 100 µM, a TGI (HL-60(TB) leukemia) greater than 100 µM and a TGI (ACHN renal) greater than 100 µM. It also gave a TGI (SNB-75 CNS) greater than 100 µM, a TGI (SN12C renal) greater than 100 µM and a TGI (A549 NSCLC) greater than 100 µM. The TGI (NCI-H460 lung) was greater than 100 µM, the TGI (SW-620 colon) was greater than 100 µM and the TGI (OVCAR-4 ovarian) was greater than 100 µM. For the same compound, the TGI (RXF 393 renal) was greater than 100 µM, the TGI (DU-145 prostate) was greater than 100 µM and the TGI (CAKI-1 renal) was greater than 100 µM. For the same compound, the TGI (SK-OV-3 ovarian) was greater than 100 µM, the TGI (HCC-2998 colon) was greater than 100 µM and the TGI (SF-295 CNS) was greater than 100 µM. The TGI (UACC-257 melanoma) was greater than 100 µM and the TGI (OVCAR-3 ovarian) was greater than 100 µM.

Work on `COC1=CC(=O)C(OC)=C(OC)C1=O` yielded a GI50 (UACC-62 melanoma) of 14.4 µM, a TGI (UACC-62 melanoma) of 27.9 µM and a GI50 (SF-268 CNS) of 17.1 µM. It also gave a TGI (SF-268 CNS) of 30.9 µM, a GI50 (A498 renal) greater than 100 µM and a TGI (A498 renal) greater than 100 µM. For the same compound, the GI50 (CCRF-CEM leukemia) was 2.8 µM, the TGI (CCRF-CEM leukemia) was 8.39 µM and the GI50 (HS 578T breast) was 28 µM. For the same compound, the TGI (HS 578T breast) was greater than 100 µM, the GI50 (HOP-92 NSCLC) was 9.38 µM and the TGI (HOP-92 NSCLC) was 22.4 µM. It also gave a GI50 (OVCAR-5 ovarian) of 17.3 µM, a TGI (OVCAR-5 ovarian) of 33 µM and a GI50 (COLO 205 colon) of 15.1 µM. For the same compound, the TGI (COLO 205 colon) was 29 µM, the GI50 (K-562 leukemia) was 2.29 µM and the TGI (K-562 leukemia) was 6.05 µM. It also gave a GI50 (PC-3 prostate) of 14.9 µM, a TGI (PC-3 prostate) of 32.8 µM and a GI50 (M14 melanoma) of 15.6 µM. The TGI (M14 melanoma) was 29.7 µM, the GI50 (MALME-3M melanoma) was 18 µM and the TGI (MALME-3M melanoma) was 35.6 µM. For the same compound, the GI50 (T-47D breast) was 10.3 µM, the TGI (T-47D breast) was 32.2 µM and the GI50 (SNB-19 CNS) was 21.5 µM. For the same compound, the TGI (SNB-19 CNS) was 52.8 µM, the GI50 (OVCAR-8 ovarian) was 15.5 µM and the TGI (OVCAR-8 ovarian) was 30.7 µM. The GI50 (U251 CNS) was 15.1 µM, the TGI (U251 CNS) was 29.3 µM and the GI50 (MDA-MB-435) was 3.16 µM. The TGI (MDA-MB-435) was 11.1 µM, the GI50 (UO-31 renal) was 13 µM and the TGI (UO-31 renal) was 26.3 µM. For the same compound, the GI50 (SR leukemia) was 2.71 µM, the TGI (SR leukemia) was 9.04 µM and the GI50 (MOLT-4 leukemia) was 2.07 µM. For the same compound, the TGI (MOLT-4 leukemia) was 5.5 µM, the GI50 (LOX IMVI melanoma) was 12 µM and the TGI (LOX IMVI melanoma) was 25.1 µM. The GI50 (HOP-62 NSCLC) was 16.2 µM, the TGI (HOP-62 NSCLC) was 29.7 µM and the GI50 (HCT-15 colon) was 16.2 µM. The TGI (HCT-15 colon) was 33.7 µM, the GI50 (SK-MEL-5 melanoma) was 16.2 µM and the TGI (SK-MEL-5 melanoma) was 30.2 µM. It also gave a GI50 (RPMI-8226 leukemia) of 14.7 µM, a TGI (RPMI-8226 leukemia) of 42.9 µM and a GI50 (HCT-116 colon) of 16 µM. The TGI (HCT-116 colon) was 29.6 µM, the GI50 (SK-MEL-28 melanoma) was 28.3 µM and the TGI (SK-MEL-28 melanoma) was 94.1 µM. It also gave a GI50 (HT29 colon) of 22.5 µM, a TGI (HT29 colon) of 53.8 µM and a GI50 (MCF7 breast) of 21.5 µM. The TGI (MCF7 breast) was 53.1 µM, the GI50 (SF-539 CNS) was 16.5 µM and the TGI (SF-539 CNS) was 30.9 µM. It also gave a GI50 (SK-MEL-2 melanoma) of 9.98 µM, a TGI (SK-MEL-2 melanoma) of 33.1 µM and a GI50 (NCI/ADR-RES ovarian) of 17.5 µM. For the same compound, the TGI (NCI/ADR-RES ovarian) was 36.6 µM, the GI50 (NCI-H226 lung) was 18.7 µM and the TGI (NCI-H226 lung) was 39.2 µM. For the same compound, the GI50 (MDA-MB-231 breast) was 2.33 µM, the TGI (MDA-MB-231 breast) was 5.13 µM and the GI50 (IGROV1 ovarian) was 19.7 µM. For the same compound, the TGI (IGROV1 ovarian) was 37.6 µM, the GI50 (NCI-H23 lung) was 14.9 µM and the TGI (NCI-H23 lung) was 30 µM. The GI50 (NCI-H522 lung) was 3.21 µM, the TGI (NCI-H522 lung) was 17.4 µM and the GI50 (BT-549 breast) was 16.7 µM. The TGI (BT-549 breast) was 30.4 µM, the GI50 (EKVX NSCLC) was 15.9 µM and the TGI (EKVX NSCLC) was 29.8 µM. For the same compound, the GI50 (786-0 renal) was 18.3 µM, the TGI (786-0 renal) was 32.5 µM and the GI50 (HL-60(TB) leukemia) was 2.92 µM. The TGI (HL-60(TB) leukemia) was 8.73 µM, the GI50 (ACHN renal) was 12.8 µM and the TGI (ACHN renal) was 25.3 µM. The GI50 (SNB-75 CNS) was 12.1 µM, the TGI (SNB-75 CNS) was 25.6 µM and the GI50 (SN12C renal) was 15.1 µM. For the same compound, the TGI (SN12C renal) was 28.8 µM, the GI50 (A549 NSCLC) was 49.5 µM and the TGI (A549 NSCLC) was greater than 100 µM. It also gave a GI50 (TK-10 renal) of 15.3 µM, a TGI (TK-10 renal) of 30 µM and a GI50 (NCI-H460 lung) of 77 µM. For the same compound, the TGI (NCI-H460 lung) was greater than 100 µM, the GI50 (SW-620 colon) was 18 µM and the TGI (SW-620 colon) was 35.1 µM. The GI50 (OVCAR-4 ovarian) was 3.05 µM, the TGI (OVCAR-4 ovarian) was 9.69 µM and the GI50 (RXF 393 renal) was 17.1 µM. The TGI (RXF 393 renal) was 30.9 µM, the GI50 (DU-145 prostate) was 16 µM and the TGI (DU-145 prostate) was 29.7 µM. The GI50 (CAKI-1 renal) was 16.1 µM, the TGI (CAKI-1 renal) was 30 µM and the GI50 (SK-OV-3 ovarian) was 72.9 µM. It also gave a TGI (SK-OV-3 ovarian) greater than 100 µM, a GI50 (HCC-2998 colon) greater than 100 µM and a TGI (HCC-2998 colon) greater than 100 µM. It also gave a GI50 (SF-295 CNS) of 17.8 µM, a TGI (SF-295 CNS) of 33.5 µM and a GI50 (UACC-257 melanoma) of 14.2 µM. The TGI (UACC-257 melanoma) was 27.7 µM, the GI50 (OVCAR-3 ovarian) was 17.2 µM and the TGI (OVCAR-3 ovarian) was 31.1 µM.
